# Counter-ions that a name gives are not always drawn.
# System: SARS-CoV-2 S-mediated membrane fusion
row,Compound,Z-score
1,COc1ccc(Cc2nccc3cc(OC)c(OC)cc23)cc1OC [Papaverine hydrochloride],"4,33"
2,CC(=O)c1ccc2c(c1)N(CCCN(C)C)c1ccccc1S2.O=C(O)/C=C\C(=O)O [Acetopromazine maleate salt],"1,71"
3,CN(C)/N=N/c1[nH]cnc1C(N)=O [Dacarbazine],"2,34"
4,Cc1ccc(NC(=O)c2ccc(CN3CCN(C)CC3)cc2)cc1Nc1nccc(-c2cccnc2)n1 [Imatinib],"2,20"
5,Cl.N[C@@H]1CCCCN(c2c(F)cc3c(=O)c(C(=O)O)cn(C4CC4)c3c2Cl)C1 [Besifloxacin hydrochloride],"2,15"
6,COCCCOc1ccnc(C[S+]([O-])c2nc3ccccc3[nH]2)c1C (centres unmarked) [Rabeprazole Sodium salt],"3,89"
7,CN1CCCN(C(c2ccccc2)c2ccc(Cl)cc2)CC1.Cl.Cl (centres unmarked) [Homochlorcyclizine dihydrochloride],"2,19"
8,O=c1[nH]c(=O)n([C@H]2C[C@H](O)[C@@H](CO)O2)cc1F [Floxuridine],"4,71"
9,O=C(CCCCCCC(=O)Nc1ccccc1)NO [Vorinostat],"4,62"
10,CCCSc1ccc2nc(NC(=O)OC)[nH]c2c1 [Albendazole],"1,67"
11,"O=C(O)Cc1cc(I)c(Oc2ccc(O)c(I)c2)c(I)c1 [Tiratricol, 3,3',5-triiodothyroacetic acid]","4,40"
12,Cl.NC1CCN(c2nc3c(cc2F)c(=O)c(C(=O)O)cn3-c2ccc(F)cc2F)C1 (centres unmarked) [Tosufloxacin hydrochloride],"1,77"
13,O=P(O)(O)C(O)(Cn1ccnc1)P(=O)(O)O [Zoledronic acid hydrate],"2,27"
14,C=CCOC(Cn1ccnc1)c1ccc(Cl)cc1Cl (centres unmarked) [Enilconazole],"3,25"
15,CN1CCCC(n2nc(Cc3ccc(Cl)cc3)c3ccccc3c2=O)CC1 (centres unmarked) [Azelastine hydrochloride],"1,52"
16,CN(c1nccc(=O)[nH]1)C1CCN(c2nc3ccccc3n2Cc2ccc(F)cc2)CC1 [Mizolastine],"2,15"
17,CC=CC(=O)N(CC)c1ccccc1C (mixture of isomers) [Crotamiton],"2,94"
18,Meclocycline sulfosalicylate,"5,55"
19,CCCCCCNC(=O)n1cc(F)c(=O)[nH]c1=O [Carmofur],"4,69"
20,COC(=O)Nc1nc2ccc(SC(C)C)cc2[nH]1 [Methiazole],"3,16"
21,COc1cccc2c1C(=O)c1c(O)c3c(c(O)c1C2=O)C[C@@](O)(C(C)=O)C[C@@H]3O[C@H]1C[C@H](N)[C@H](O)[C@H](C)O1 [Daunorubicin hydrochloride],"1,79"
22,CCCOc1ccc2nc(NC(=O)OC)[nH]c2c1 [Oxibendazol],"2,13"
23,C[C@@H]1C[C@H]2[C@@H]3CCC4=CC(=O)C=C[C@]4(C)[C@@]3(Cl)[C@@H](O)C[C@]2(C)[C@@]1(OC(=O)c1ccco1)C(=O)CCl [Mometasone furoate],"2,51"
24,CN(C)[C@@H]1C(O)=C(C(N)=O)C(=O)[C@@]2(O)C(O)=C3C(=O)c4c(O)cccc4[C@@](C)(O)[C@H]3[C@H](O)[C@@H]12 [Oxytetracycline dihydrate],"2,06"

row,Compound,Z-score
1,C=C(NC(=O)C(=C)NC(=O)c1csc(C2=N[C@@H]3c4csc(n4)[C@H]4NC(=O)c5csc(n5)[C@H]([C@](C)(O)[C@@H](C)O)NC(=O)[C@H]5CSC(=N5)/C(=C/C)NC(=O)[C@H]([C@@H](C)O)NC(=O)c5csc(n5)[C@]3(CC2)NC(=O)[C@H](C)NC(=O)C(=C)NC(=O)[C@H](C)NC(=O)[C@H]([C@@H](C)CC)N[C@@H]2C=Cc3c([C@H](C)O)cc(nc3[C@H]2O)C(=O)O[C@@H]4C)n1)C(N)=O [Thiostrepton],"5,52"
2,COC(=O)Nc1nc2cc(C(=O)c3ccc(F)cc3)ccc2[nH]1 [Flubendazol],"3,95"
3,CN1CCN(CCCN2c3ccccc3Sc3ccc(S(=O)(=O)N(C)C)cc32)CC1.CS(=O)(=O)O.CS(=O)(=O)O [Thioproperazine dimesylate],"2,39"
4,CCCCCC[C@H]1C(=O)O[C@H](C)[C@H](NC(=O)c2cccc(NC=O)c2O)C(=O)O[C@@H](C)[C@@H]1OC(=O)CC(C)C [Antimycin A],"4,08"
5,C1CCC(C(CC2CCCCN2)C2CCCCC2)CC1 (centres unmarked) [Perhexiline maleate],"2,68"
6,Cc1c(OCC(F)(F)F)ccnc1C[S+]([O-])c1nc2ccccc2[nH]1 (centres unmarked) [Lansoprazole],"3,43"
7,Clc1ccc2c(c1)CCc1cccnc1C2=C1CCNCC1 [Desloratadine],"1,59"
8,CCCC1C(=O)N2C(N(C)C)=Nc3ccc(C)cc3N2C1=O (centres unmarked) [Azapropazone],"1,91"
9,CCCCCCC[N+](CC)(CC)CCCCc1ccc(Cl)cc1.Cc1ccc(S(=O)(=O)[O-])cc1 [Clofilium tosylate],"2,76"
10,O=c1[nH]cc(F)c(=O)[nH]1 [5-fluorouracil],"3,16"
11,CC[C@H](C)C(=O)O[C@H]1CCC=C2C=C[C@H](C)[C@H](CC[C@@H]3C[C@@H](O)CC(=O)O3)[C@H]21 [Mevastatin],"1,92"
12,COc1cccc2c1C(=O)c1c(O)c3c(c(O)c1C2=O)C[C@@](O)(C(=O)CO)C[C@@H]3O[C@H]1C[C@H](N)[C@H](O)[C@H](C)O1 [Doxorubicin hydrochloride],"4,48"
13,CCCCc1ccc2[nH]c(NC(=O)OC)nc2c1 [Parbendazole],"2,56"
14,CCOc1ccc(Cc2nccc3cc(OCC)c(OCC)cc23)cc1OCC [Ethaverine hydrochloride],"4,10"
15,CC(C)c1c(C(=O)Nc2ccccc2)c(-c2ccccc2)c(-c2ccc(F)cc2)n1CC[C@@H](O)C[C@@H](O)CC(=O)O [Atorvastatin],"1,88"
16,Cc1cc(N)c2ccccc2[n+]1CCCCCCCCCC[n+]1c(C)cc(N)c2ccccc21 [Dequalinium dichloride],"4,90"
17,CC(=O)O[C@H]1C[C@@]2(C)[C@@H](C[C@@H](O)[C@H]3[C@@]4(C)CC[C@@H](O)[C@@H](C)[C@@H]4CC[C@@]32C)/C1=C(\CCC=C(C)C)C(=O)O [Fusidic acid sodium salt],"2,35"
18,C[C@H]1c2cccc(O)c2C(=O)C2=C(O)[C@]3(O)C(=O)C(C(N)=O)=C(O)[C@@H](N(C)C)[C@@H]3[C@@H](O)[C@@H]21 [Doxycycline hydrochloride],"3,00"
19,C[C@]12CC[C@H]3C(=CCc4cc(O)ccc43)[C@@H]1CCC2=O [Equilin],"1,98"
20,C[C@]12CC[C@@H]3c4ccc(OC(=O)N(CCCl)CCCl)cc4CC[C@H]3[C@@H]1CC[C@@H]2O [Estramustine],"3,30"
21,COc1cc2ncnc(Nc3ccc(F)c(Cl)c3)c2cc1OCCCN1CCOCC1 [Gefitinib],"3,33"
22,C[C@@H]1CN(c2c(F)c(N)c3c(=O)c(C(=O)O)cn(C4CC4)c3c2F)C[C@H](C)N1 [Sparfloxacin],"2,09"
23,CC(C)C(=O)c1c(C(C)C)nn2ccccc12 [Ibudilast],"1,71"
24,CC[C@H](c1ccc(O)cc1)[C@@H](CC)c1ccc(O)cc1 [Hexestrol],"2,65"

row,Compound,Z-score
1,O=C([O-])c1ccccc1-c1c2cc(Br)c(=O)cc-2oc2[c]([Hg+])c([O-])c(Br)cc12.[Na+].[Na+].[OH-] [Merbromin],"8,74"
2,C/C(=C\C(=O)OCCCCCCCCC(=O)O)C[C@@H]1OC[C@H](C[C@@H]2O[C@H]2[C@@H](C)[C@H](C)O)[C@@H](O)[C@H]1O [Mupirocin],"1,57"
3,O=C(O)c1cn(-c2ccc(F)cc2)c2cc(N3CCNCC3)c(F)cc2c1=O [Sarafloxacin],"2,16"
4,N=C(N)c1ccc(OCCCCCOc2ccc(C(=N)N)cc2)cc1 [Pentamidine isethionate],"6,07"
5,Oc1c(Cl)cc(Cl)c(Cl)c1Cc1c(O)c(Cl)cc(Cl)c1Cl [Hexachlorophene],"3,99"
6,COC(=O)Nc1nc2ccc([S+]([O-])c3ccccc3)cc2[nH]1 (centres unmarked) [Oxfendazol],"1,63"
7,O=C(N[C@H](CO)[C@H](O)c1ccc([N+](=O)[O-])cc1)C(Cl)Cl [Chloramphenicol],"2,64"
8,Nc1nc(O)c2[nH]nnc2n1 [Azaguanine-8],"6,79"
9,CNCCCC12CCC(c3ccccc31)c1ccccc12 [Maprotiline hydrochloride],"2,05"
10,COC(=O)Nc1nc2ccc(C(=O)c3cccs3)cc2[nH]1 [Nocodazole],"2,99"
11,COc1cc2c(c(OC)c1OC)-c1ccc(OC)c(=O)cc1[C@@H](NC(C)=O)CC2 [Colchicine],"1,93"
12,CCCOc1ccccc1-c1nc2nn[nH]c2c(=O)[nH]1 [Zaprinast],"1,64"
13,CC(C)C[C@H]1C(=O)N2CCC[C@H]2[C@]2(O)O[C@](NC(=O)[C@@H]3C=C4c5cccc6[nH]c(Br)c(c56)C[C@H]4N(C)C3)(C(C)C)C(=O)N12.CS(=O)(=O)O [Bromocryptine mesylate],"5,89"
14,CN(C)c1ccc(O)c2c1C[C@H]1C[C@H]3[C@H](N(C)C)C(O)=C(C(N)=O)C(=O)[C@@]3(O)C(O)=C1C2=O [Minocycline hydrochloride],"4,43"
15,O=C(O)CN(CCN(CC(=O)O)CC(=O)O)CCN(CC(=O)O)CC(=O)O [Pentetic acid],"2,14"
16,C#C[C@]1(O)CC[C@H]2[C@@H]3CCc4cc(OC)ccc4[C@H]3CC[C@@]21C [Ethynylestradiol 3-methyl ether],"1,52"
17,CC(C)Oc1ccc2c(=O)c(-c3ccccc3)coc2c1 [Ipriflavone],"2,37"
18,Nc1nc(Cl)nc2c1ncn2[C@H]1C[C@H](O)[C@@H](CO)O1 [Cladribine],"1,60"
19,CC(=O)O[C@@]12CO[C@@H]1C[C@H](O)[C@@]1(C)C(=O)[C@H](O)C3=C(C)[C@@H](OC(=O)[C@H](O)[C@@H](NC(=O)OC(C)(C)C)c4ccccc4)C[C@@](O)([C@@H](OC(=O)c4ccccc4)[C@H]21)C3(C)C [Docetaxel],"1,72"
20,CCc1c2c(nc3ccc(OC(=O)N4CCC(N5CCCCC5)CC4)cc13)-c1cc3c(c(=O)n1C2)COC(=O)[C@]3(O)CC.Cl.O.O.O [Irinotecan hydrochloride trihydrate],"4,23"
21,CC1(C)O[C@@H]2C[C@H]3[C@@H]4CCC5=CC(=O)C=C[C@]5(C)[C@H]4[C@@H](O)C[C@]3(C)[C@]2(C(=O)CO)O1 [Desonide],"1,59"
22,C=CC[C@]1(O)CC[C@H]2[C@@H]3CCC4=CC(=O)CCC4=C3C=C[C@@]21C [Altrenogest],"2,61"
23,Tyloxapol,"3,89"

# — publication PMC10206591, “Identification of small molecules capable of enhancing viral membrane fusion” (Virology Journal, 2023)
